# Several values for one entry are separate records, joined by “and”; a condition that tells them apart may be missing. Equal values may be shown once.
# Legend:
# SfurOBP1 = SfurOBP1 (Sogatella furcifera, UniProt V5T8N5); assay: biochemical; format: binding; conditions: for Fluorescence competitive binding assay, fluorescence intensity: OBP1, three replicate columns
# Outline: (§1)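 In 50 mM Tris-HCl pH 7.4, odorants displace 1-NPN (2.0 µM) from 2.0 µM protein. Emission at 390–490 nm under 337 nm excitation is measured 2 min after competitor addition, in triplicate. Ki is obtained from IC50 and the 1-NPN dissociation constant.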
# SfurOBP11 = SfurOBP11 (Sogatella furcifera, UniProt V5T6E3); assay: biochemical; format: binding
# Outline: as §1
# SfurOBP2 = SfurOBP2 (Sogatella furcifera, UniProt V5T759); assay: biochemical; format: binding
# Outline: as §1
# SfurOBP3 = SfurOBP3 (Sogatella furcifera, UniProt V5T818); assay: biochemical; format: binding; conditions: for Fluorescence competitive binding assay, fluorescence intensity: OBP3, three replicate columns;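 for Fluorescence competitive binding assay, fluorescence intensity: competitor odorant at 2 to 20 µM with protein and 1-NPN both 2.0 µM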
# Outline: as §1
# S. furcifera adults = assay: Y-tube olfactometer behavioral trials; format: in vivo, Sogatella furcifera; conditions: odorant 50 µL/L vs hexane; adults
# Outline: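 Single S. furcifera adults (2 days post-emergence, starved 0.5 h) chose between odorant (100 µL of 50 µL/L on filter paper) and hexane control in a glass Y-tube, charcoal-filtered humidified air 300 mL/min per arm, 25 ± 1 °C, 50% RH. Choice scored if insect passed half an arm and stayed >1 min within 10 min; 45 insects per compound, chi-squared test.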
# 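Throughout, for Fluorescence competitive binding assay, fluorescence intensity: competitor odorant at 2 to 20 µM with protein and 1-NPN both 2.0 µM.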
# SfurOBP2, sequence (V5T759 entry or part of it): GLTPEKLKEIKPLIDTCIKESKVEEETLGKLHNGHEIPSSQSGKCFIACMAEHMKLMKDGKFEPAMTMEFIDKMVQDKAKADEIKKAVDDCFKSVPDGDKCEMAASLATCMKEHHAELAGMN
# SfurOBP1, sequence (V5T8N5 entry or part of it): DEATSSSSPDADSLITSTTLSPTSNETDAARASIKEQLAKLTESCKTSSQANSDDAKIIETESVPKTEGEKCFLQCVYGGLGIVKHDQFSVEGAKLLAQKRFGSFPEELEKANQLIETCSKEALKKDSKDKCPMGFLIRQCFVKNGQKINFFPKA
# SfurOBP3, sequence (V5T818 entry or part of it): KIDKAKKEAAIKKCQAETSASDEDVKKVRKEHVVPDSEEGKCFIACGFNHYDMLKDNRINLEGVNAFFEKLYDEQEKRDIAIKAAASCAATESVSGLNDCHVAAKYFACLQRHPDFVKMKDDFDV
# SfurOBP11, sequence (V5T6E3 entry or part of it): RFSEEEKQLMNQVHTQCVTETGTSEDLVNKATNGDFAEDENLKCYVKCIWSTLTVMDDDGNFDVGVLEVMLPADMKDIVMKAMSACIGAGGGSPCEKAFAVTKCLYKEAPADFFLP
smiles,measurement,setting,value
COC(=O)c1ccccc1 [benzoic acid methylester],IC50,SfurOBP1,> 20 µM
same,"Fluorescence competitive binding assay, fluorescence intensity",SfurOBP1; ligand concentration 2 (μM),5064 and 4951 and 5158
same,"Fluorescence competitive binding assay, fluorescence intensity",SfurOBP1; ligand concentration 4 (μM),5979 and 6427 and 5531
same,"Fluorescence competitive binding assay, fluorescence intensity",SfurOBP1; ligand concentration 6 (μM),9023 and 8678 and 7700
same,"Fluorescence competitive binding assay, fluorescence intensity",SfurOBP1; ligand concentration 8 (μM),8709 and 6440 and 6910
same,"Fluorescence competitive binding assay, fluorescence intensity",SfurOBP1; ligand concentration 10 (μM),7708 and 6333 and 7083
same,"Fluorescence competitive binding assay, fluorescence intensity",SfurOBP1; ligand concentration 12 (μM),5895 and 6787 and 5523
same,"Fluorescence competitive binding assay, fluorescence intensity",SfurOBP1; ligand concentration 14 (μM),8915 and 6017 and 4981
same,"Fluorescence competitive binding assay, fluorescence intensity",SfurOBP1; ligand concentration 16 (μM),7008 and 5157 and 5392
same,"Fluorescence competitive binding assay, fluorescence intensity",SfurOBP1; ligand concentration 18 (μM),7131 and 8076 and 6232
same,"Fluorescence competitive binding assay, fluorescence intensity",SfurOBP1; ligand concentration 20 (μM),6422 and 6546 and 6873
same,IC50,SfurOBP11,> 20 µM
same,"Fluorescence intensity, fluorescence competitive binding assay, OBP11","SfurOBP11; ligand concentration 2, replicate 1",27311
same,"Fluorescence intensity, fluorescence competitive binding assay, OBP11","SfurOBP11; ligand concentration 2, replicate 2",29257
same,"Fluorescence intensity, fluorescence competitive binding assay, OBP11","SfurOBP11; ligand concentration 2, replicate 3",28341
same,"Fluorescence intensity, fluorescence competitive binding assay, OBP11","SfurOBP11; ligand concentration 4, replicate 1",28195
same,"Fluorescence intensity, fluorescence competitive binding assay, OBP11","SfurOBP11; ligand concentration 4, replicate 2",27454
same,"Fluorescence intensity, fluorescence competitive binding assay, OBP11","SfurOBP11; ligand concentration 4, replicate 3",28935
same,"Fluorescence intensity, fluorescence competitive binding assay, OBP11","SfurOBP11; ligand concentration 6, replicate 1",25204
same,"Fluorescence intensity, fluorescence competitive binding assay, OBP11","SfurOBP11; ligand concentration 6, replicate 2",26496
same,"Fluorescence intensity, fluorescence competitive binding assay, OBP11","SfurOBP11; ligand concentration 6, replicate 3",27787
same,"Fluorescence intensity, fluorescence competitive binding assay, OBP11","SfurOBP11; ligand concentration 8, replicate 1",24731
same,"Fluorescence intensity, fluorescence competitive binding assay, OBP11","SfurOBP11; ligand concentration 8, replicate 2",24972
same,"Fluorescence intensity, fluorescence competitive binding assay, OBP11","SfurOBP11; ligand concentration 8, replicate 3",24489
same,"Fluorescence intensity, fluorescence competitive binding assay, OBP11","SfurOBP11; ligand concentration 10, replicate 1",24285
same,"Fluorescence intensity, fluorescence competitive binding assay, OBP11","SfurOBP11; ligand concentration 10, replicate 2",24217
same,"Fluorescence intensity, fluorescence competitive binding assay, OBP11","SfurOBP11; ligand concentration 10, replicate 3",24352
same,"Fluorescence intensity, fluorescence competitive binding assay, OBP11","SfurOBP11; ligand concentration 12, replicate 1",23537
same,"Fluorescence intensity, fluorescence competitive binding assay, OBP11","SfurOBP11; ligand concentration 12, replicate 2",23314
same,"Fluorescence intensity, fluorescence competitive binding assay, OBP11","SfurOBP11; ligand concentration 12, replicate 3",23760
same,"Fluorescence intensity, fluorescence competitive binding assay, OBP11","SfurOBP11; ligand concentration 14, replicate 1",19900
same,"Fluorescence intensity, fluorescence competitive binding assay, OBP11","SfurOBP11; ligand concentration 14, replicate 2",22587
same,"Fluorescence intensity, fluorescence competitive binding assay, OBP11","SfurOBP11; ligand concentration 14, replicate 3",21306
same,"Fluorescence intensity, fluorescence competitive binding assay, OBP11","SfurOBP11; ligand concentration 16, replicate 1",18401
same,"Fluorescence intensity, fluorescence competitive binding assay, OBP11","SfurOBP11; ligand concentration 16, replicate 2",18544
same,"Fluorescence intensity, fluorescence competitive binding assay, OBP11","SfurOBP11; ligand concentration 16, replicate 3",17724
same,"Fluorescence intensity, fluorescence competitive binding assay, OBP11","SfurOBP11; ligand concentration 18, replicate 1",22003
same,"Fluorescence intensity, fluorescence competitive binding assay, OBP11","SfurOBP11; ligand concentration 18, replicate 2",20975
same,"Fluorescence intensity, fluorescence competitive binding assay, OBP11","SfurOBP11; ligand concentration 18, replicate 3",22765
same,"Fluorescence intensity, fluorescence competitive binding assay, OBP11","SfurOBP11; ligand concentration 20, replicate 1",21640
same,"Fluorescence intensity, fluorescence competitive binding assay, OBP11","SfurOBP11; ligand concentration 20, replicate 2",22200
same,"Fluorescence intensity, fluorescence competitive binding assay, OBP11","SfurOBP11; ligand concentration 20, replicate 3",21920
same,IC50,SfurOBP2,> 20 µM
same,"Fluorescence competitive binding assay, OBP2 (raw fluorescence reading)","SfurOBP2; ligand concentration 2 (unit not given), replicate column 1 of 3",20302
same,"Fluorescence competitive binding assay, OBP2 (raw fluorescence reading)","SfurOBP2; ligand concentration 2 (unit not given), replicate column 2 of 3",19349
same,"Fluorescence competitive binding assay, OBP2 (raw fluorescence reading)","SfurOBP2; ligand concentration 2 (unit not given), replicate column 3 of 3",19856
same,"Fluorescence competitive binding assay, OBP2 (raw fluorescence reading)","SfurOBP2; ligand concentration 4 (unit not given), replicate column 1 of 3",20922
same,"Fluorescence competitive binding assay, OBP2 (raw fluorescence reading)","SfurOBP2; ligand concentration 4 (unit not given), replicate column 2 of 3",22649
same,"Fluorescence competitive binding assay, OBP2 (raw fluorescence reading)","SfurOBP2; ligand concentration 4 (unit not given), replicate column 3 of 3",23660
same,"Fluorescence competitive binding assay, OBP2 (raw fluorescence reading)","SfurOBP2; ligand concentration 6 (unit not given), replicate column 1 of 3",19982
same,"Fluorescence competitive binding assay, OBP2 (raw fluorescence reading)","SfurOBP2; ligand concentration 6 (unit not given), replicate column 2 of 3",19598
same,"Fluorescence competitive binding assay, OBP2 (raw fluorescence reading)","SfurOBP2; ligand concentration 6 (unit not given), replicate column 3 of 3",20363
same,"Fluorescence competitive binding assay, OBP2 (raw fluorescence reading)","SfurOBP2; ligand concentration 8 (unit not given), replicate column 1 of 3",18016
same,"Fluorescence competitive binding assay, OBP2 (raw fluorescence reading)","SfurOBP2; ligand concentration 8 (unit not given), replicate column 2 of 3",17876
same,"Fluorescence competitive binding assay, OBP2 (raw fluorescence reading)","SfurOBP2; ligand concentration 8 (unit not given), replicate column 3 of 3",18155
same,"Fluorescence competitive binding assay, OBP2 (raw fluorescence reading)","SfurOBP2; ligand concentration 10 (unit not given), replicate column 1 of 3",17866
same,"Fluorescence competitive binding assay, OBP2 (raw fluorescence reading)","SfurOBP2; ligand concentration 10 (unit not given), replicate column 2 of 3",16967
same,"Fluorescence competitive binding assay, OBP2 (raw fluorescence reading)","SfurOBP2; ligand concentration 10 (unit not given), replicate column 3 of 3",17417
same,"Fluorescence competitive binding assay, OBP2 (raw fluorescence reading)","SfurOBP2; ligand concentration 12 (unit not given), replicate column 1 of 3",14659
same,"Fluorescence competitive binding assay, OBP2 (raw fluorescence reading)","SfurOBP2; ligand concentration 12 (unit not given), replicate column 2 of 3",16003
same,"Fluorescence competitive binding assay, OBP2 (raw fluorescence reading)","SfurOBP2; ligand concentration 12 (unit not given), replicate column 3 of 3",15331
same,"Fluorescence competitive binding assay, OBP2 (raw fluorescence reading)","SfurOBP2; ligand concentration 14 (unit not given), replicate column 1 of 3",15808
same,"Fluorescence competitive binding assay, OBP2 (raw fluorescence reading)","SfurOBP2; ligand concentration 14 (unit not given), replicate column 2 of 3",14578
same,"Fluorescence competitive binding assay, OBP2 (raw fluorescence reading)","SfurOBP2; ligand concentration 14 (unit not given), replicate column 3 of 3",16066
same,"Fluorescence competitive binding assay, OBP2 (raw fluorescence reading)","SfurOBP2; ligand concentration 16 (unit not given), replicate column 1 of 3",13829
same,"Fluorescence competitive binding assay, OBP2 (raw fluorescence reading)","SfurOBP2; ligand concentration 16 (unit not given), replicate column 2 of 3",13659
same,"Fluorescence competitive binding assay, OBP2 (raw fluorescence reading)","SfurOBP2; ligand concentration 16 (unit not given), replicate column 3 of 3",13740
same,"Fluorescence competitive binding assay, OBP2 (raw fluorescence reading)","SfurOBP2; ligand concentration 18 (unit not given), replicate column 1 of 3",13696
same,"Fluorescence competitive binding assay, OBP2 (raw fluorescence reading)","SfurOBP2; ligand concentration 18 (unit not given), replicate column 2 of 3",13929
same,"Fluorescence competitive binding assay, OBP2 (raw fluorescence reading)","SfurOBP2; ligand concentration 18 (unit not given), replicate column 3 of 3",14161
same,"Fluorescence competitive binding assay, OBP2 (raw fluorescence reading)","SfurOBP2; ligand concentration 20 (unit not given), replicate column 1 of 3",14205
same,"Fluorescence competitive binding assay, OBP2 (raw fluorescence reading)","SfurOBP2; ligand concentration 20 (unit not given), replicate column 2 of 3",14645
same,"Fluorescence competitive binding assay, OBP2 (raw fluorescence reading)","SfurOBP2; ligand concentration 20 (unit not given), replicate column 3 of 3",13761
same,IC50,SfurOBP3,> 20 µM
same,"Fluorescence competitive binding assay, fluorescence intensity",SfurOBP3; ligand concentration 2,65046 and 56813 and 65508
same,"Fluorescence competitive binding assay, fluorescence intensity",SfurOBP3; ligand concentration 4,67380 and 59779 and 65465
same,"Fluorescence competitive binding assay, fluorescence intensity",SfurOBP3; ligand concentration 6,60647 and 61139 and 65169
same,"Fluorescence competitive binding assay, fluorescence intensity",SfurOBP3; ligand concentration 8,62761 and 59088 and 65223
same,"Fluorescence competitive binding assay, fluorescence intensity",SfurOBP3; ligand concentration 10,58066 and 60267 and 58488
same,"Fluorescence competitive binding assay, fluorescence intensity",SfurOBP3; ligand concentration 12,53979 and 46844 and 52174
same,"Fluorescence competitive binding assay, fluorescence intensity",SfurOBP3; ligand concentration 14,52567 and 46884 and 49119
same,"Fluorescence competitive binding assay, fluorescence intensity",SfurOBP3; ligand concentration 16,43090 and 45767 and 42573
same,"Fluorescence competitive binding assay, fluorescence intensity",SfurOBP3; ligand concentration 18,48410 and 52387 and 52599
same,"Fluorescence competitive binding assay, fluorescence intensity",SfurOBP3; ligand concentration 20,47608 and 41929 and 45047
same,number of insects choosing hexane arm,S. furcifera adults,10
same,number of insects choosing volatilies arm,S. furcifera adults,9
same,number of insects failed (no choice),S. furcifera adults,20

# Reference: paper PMC6409085, “Three odorant-binding proteins are involved in the behavioral response of Sogatella furcifera to rice plant volatiles” (PeerJ, 2019)
